Test results from patent US20130202594A1, “ALK1 Antagonists and Their Uses in Treating Renal Cell Carcinoma” (priority 2012, published 2013).
Entries after “also recorded” stand apart in the source; their conditions may differ.

Experiments:
GDF5 = molecular target: T1, GDF5 (Homo sapiens, UniProt P43026); assay: Biacore binding to hALK1-Fc: GDF5
T1 sequence (P43026 382-501): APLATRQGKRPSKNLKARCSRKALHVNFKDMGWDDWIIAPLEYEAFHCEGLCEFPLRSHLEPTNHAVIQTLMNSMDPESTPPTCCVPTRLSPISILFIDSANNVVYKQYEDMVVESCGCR
Procedure: (§1) ALK1 is a type 1 receptor for ligands of the TGFβ family. Multiple members of the TGFβ family were tested for binding to a human ALK1-Fc fusion protein, using a Biacore™ system.

BMP10 = molecular target: T2, BMP10 (Homo sapiens, UniProt O95393); assay: Biacore binding to hALK1-Fc: BMP10
T2 sequence (O95393 317-424): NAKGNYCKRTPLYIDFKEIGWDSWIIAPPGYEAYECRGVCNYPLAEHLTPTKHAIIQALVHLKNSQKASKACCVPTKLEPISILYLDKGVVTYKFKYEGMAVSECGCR
Procedure: as §1

BMP2 = molecular target: T3, BMP2 (Homo sapiens, UniProt P12643); assay: Biacore binding to hALK1-Fc: BMP2
T3 sequence (P12643 283-396): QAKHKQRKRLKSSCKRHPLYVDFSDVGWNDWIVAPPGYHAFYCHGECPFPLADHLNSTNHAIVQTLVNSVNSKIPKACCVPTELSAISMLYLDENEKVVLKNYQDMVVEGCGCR
Procedure: as §1

[1] = tested on: BMP-9 mediated Smad1/5/8 signaling in HMVEC cells; assay: SBE4-luc luciferase reporter of BMP-9 mediated Smad1/5/8 signaling in HMVEC cells; assay type: cell-based, human; conditions: 10 μg/ml, rhBMP-9 50 ng/ml
Procedure: Using a luciferase reporter construct under the control of four sequential consensus SBE sites (SBE4-luc), which are responsive to Smad1/5/8-mediated signaling, we measured BMP-9 mediated activity in the presence and absence of hALK1-Fc drug or neutralizing ALK1 specific monoclonal antibody in HMVEC cells. HMVEC cells were stimulated with rhBMP-9 (50 ng/ml), which induced Smad1/5/8-mediated transcriptional activation, evidenced here by the increase in SBE4-luc modulated transcriptional upregulation.

[2] = tested on: SMAD 1/5/8 phosphorylation in HUVEC cells; assay: rhBMP-9 induced SMAD 1/5/8 phosphorylation in HUVEC cells; assay type: cell-based, human; conditions: 250 ng/ml, rhBMP-9 50 ng/ml
Procedure: Activation of SMAD phosphorylation is commonly used to assay activation of upstream activin receptors. ALK1 is known to modulate phosphorylation of SMAD proteins 1,5 and 8 upon activation by its ligand. Here, we added rhBMP-9 (50 ng/ml) to initiate SMAD phosphorylation in HUVEC cells, a human endothelial cell line which innately expresses ALK1 receptor, over a timecourse of 30 minutes. Phosphorylation of SMAD 1/5/8 was seen 5 minutes after treatment of cells with ligand and phosphorylation was maintained for the entirety of the 30 minute period.

endothelial cells = assay: Endothelial cell tube forming assay on Matrigel with ECGS; assay type: cell-based; conditions: for tube formation compared with endostatin: endostatin 100 ng/ml
Description: In order to evaluate the angiogenic effect of ALK1-Fc in an in vitro system, we assayed the effectiveness of the compound in reducing tube formation of endothelial cells on a Matrigel substrate. This technique is commonly used to assess neovascularization, giving both rapid and highly reproducible results. Endothelial Cell Growth Supplement (ECGS) is used to induce the formation of microvessels from endothelial cells on Matrigel, and the efficacy of anti-angiogenic compounds are then gauged as a reduction of cord formation in the presence of both the drug and ECGS over an 18 hour timecourse. As expected, addition of ECGS (200 ng/ml) induced significant cord formation, as compared to the negative control (no treatment added), which indicates basal levels of endothelial cell cord formation produced on Matrigel substrate (FIG. 5).

ocular angiogenesis = assay: Mouse corneal micropocket assay; assay type: in vivo; conditions: intraperitoneally; identical weight/weight dosages
Description: In preferred embodiments, an ALK1 ECD polypeptide binds to one or more of GDF5, GDF6, GDF7, BMP9 and BMP10. […] Binding may be assessed using purified proteins in solution or in a surface plasmon resonance system, such as a Biacore™ system. […] Bioassays for angiogenesis inhibitory activity include the chick chorioallantoic membrane (CAM) assay, the mouse corneal micropocket assay, or an assay known in the art for measuring the effect of administering isolated or synthesized proteins on implanted tumors. The CAM assay is described by O'Reilly, et al., in “Angiogenic Regulation of Metastatic Growth” Cell, 1994; 79 (2):315-328. Briefly, 3 day old chicken embryos with intact yolks are separated from the egg and placed in a petri dish. After 3 days of incubation, a methylcellulose disc containing the protein to be tested is applied to the CAM of individual embryos. After 48 hours of incubation, the embryos and CAMs are observed to determine whether endothelial growth has been inhibited. The mouse corneal micropocket assay involves implanting a growth factor-containing pellet, […] of capillaries that are elaborated in the cornea. Other assays are described in the Examples.
Similar data were obtained when a Matrigel plug impregnated with VEGF was implanted in a non-ocular location.

[3] = tested on: BMP10 signaling (Smad1/5/8 reporter) in T98G cells; assay: BMP10 signaling reporter assay in T98G cells transfected with ALK1; assay type: cell-based, human; conditions: 65 ng/ml, BMP10 1 ng/ml
Procedure: Effects of hALK-Fc on BMP10 signaling were determined in a cell-based assay, in which human glioblastoma T98G cells were transfected with three plasmids: 1) an expression construct encoding full-length ALK1; 2) a firefly-luciferase reporter construct (see Example 3) responsive to Smad1/5/8-mediated signaling, and 3) a Renilla-luciferase control construct. Treatment of transfected cells with recombinant human BMP10 (1 ng/ml) strongly stimulated firefly luciferase activity relative to Renilla luciferase activity (FIG. 16). Omission of the ALK1 expression construct reduced BMP10-stimulated activity by approximately two-thirds (data not shown), thus implicating ALK1 as a major mediator of the BMP10 signal. Treatment of fully transfected cells with hALK1-Fc (65 ng/ml) and BMP10 (1 ng/ml) reduced the transcriptional response compared to BMP10 alone by more than 80% (FIG. 16).

“hALK1-Fc: extracellular domain of human ALK1 (amino acids 22-120) fused to a human IgG1 Fc with a minimal linker (SEQ ID NO:3/14)” was tested, and the Kd (GDF5) was ~0.05 µM, the Kd (BMP10) was ~0.003 µM and the “binding to hALK1-Fc” value (BMP2) was “failed to show substantial binding; also recorded: only limited binding”. The “diminished transcriptional response (SBE4-luc)” value [1] was ~60%, the “SMAD 1/5/8 phosphorylation” value [2] was “SMAD 1/5/8 phosphorylation was reduced” and the cord formation (endothelial cells; 100 ng/ml, ECGS 200 ng/ml, 18 hour) was “cord formation was visibly reduced”. For the same substance, the “tube formation compared with endostatin” value (endothelial cells; ECGS) was “more potent anti-angiogenic activity than the negative control endostatin”, the “tube formation compared with endostatin” value (endothelial cells; ECGS, listed as ACE) was “to a greater degree than the positive control, Endostatin” and the “neovascularization (quantification of vessel length)” value (endothelial cells; every concentration, ECGS) was “reduced neovascularization to basal levels”. The ocular angiogenesis (ocular angiogenesis) was “significantly inhibited ocular angiogenesis; also recorded: to the same degree as anti-VEGF; also recorded: comparable effects” and the “reduction of transcriptional response compared to BMP10 alone” value [3] was “more than 80%”.
